Data as given in patent US7118895B2, “Process for producing aglycon by using diglycosidase and flavor-improved food containing the aglycon and converting agent to be used in the process” (Amano Enzyme Inc., priority 2000, dated 2006).

Test system: Crude diglycosidase
Assay: Examination of pH in the conversion into isoflavone aglycons by diglycosidase using soybean materials
Assay type: biochemical, Penicillium multicolor IAM7153
Parameters: Decomposition efficiency of genistin family in soymilk / Decomposition efficiency of genistin family in defatted soybean / Decomposition efficiency of daidzin family in defatted soybean: concentration or dose not given beside the values
Conditions: for Decomposition efficiency of daidzin family in roasted soy flour: 55° C.
How it was run: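 Suspensions of 50 mg roasted soy flour, soymilk, defatted soybean or concentrated soy protein were brought to pH 2 to 11 with HCl or NaOH and reacted at 55° C with crude diglycosidase (enzyme solution at 1.88 AU/mL, same pH). Ethanol-stopped samples at 0, 1, 3 and 6 h were analysed by HPLC.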

[1] = pH4.8, heat treatment of enzyme: no, reaction time 0 h
[2] = pH4.8, heat treatment of enzyme: no, reaction time 1 h
[3] = pH4.8, heat treatment of enzyme: no, reaction time 3 h
[4] = pH4.8, heat treatment of enzyme: no, reaction time 6 h
[5] = pH4.8, heat treatment of enzyme: yes, reaction time 6 h
[6] = pH6.6, heat treatment of enzyme: no, reaction time 0 h
[7] = pH6.6, heat treatment of enzyme: no, reaction time 1 h
[8] = pH6.6, heat treatment of enzyme: no, reaction time 3 h
[9] = pH6.6, heat treatment of enzyme: no, reaction time 6 h
[10] = pH6.6, heat treatment of enzyme: yes, reaction time 6 h

O=c1c(-c2ccc(O)cc2)coc2cc(O[C@@H]3O[C@H](CO)[C@@H](O)[C@H](O)[C@H]3O)ccc12 [daidzin]
Decomposition efficiency of daidzin family in concentrated soybean protein (pH1.6, heat treatment of enzyme: no, reaction time 0 h): 52.5%
Decomposition efficiency of daidzin family in concentrated soybean protein (pH1.6, heat treatment of enzyme: no, reaction time 1 h): 53.0%
Decomposition efficiency of daidzin family in concentrated soybean protein (pH1.6, heat treatment of enzyme: no, reaction time 3 h): 55.0%
Decomposition efficiency of daidzin family in concentrated soybean protein (pH1.6, heat treatment of enzyme: no, reaction time 6 h): 57.2%
Decomposition efficiency of daidzin family in concentrated soybean protein (pH1.6, heat treatment of enzyme: yes, reaction time 6 h): 59.0%
Decomposition efficiency of daidzin family in roasted soy flour (pH2, heat treatment of enzyme no, reaction time 0 h): 49.1
Decomposition efficiency of daidzin family in roasted soy flour (pH2, heat treatment of enzyme no, reaction time 1 h): 47.6
Decomposition efficiency of daidzin family in roasted soy flour (pH2, heat treatment of enzyme no, reaction time 3 h): 50.3
Decomposition efficiency of daidzin family in roasted soy flour (pH2, heat treatment of enzyme no, reaction time 6 h): 53.1
Decomposition efficiency of daidzin family in roasted soy flour (pH2, heat treatment of enzyme yes, reaction time 6 h): 53.8
Decomposition efficiency of daidzin family in soymilk (pH2.3, heat treatment of enzyme: no, reaction time 0 h): 34.4%
Decomposition efficiency of daidzin family in soymilk (pH2.3, heat treatment of enzyme: no, reaction time 1 h): not detected
Decomposition efficiency of daidzin family in soymilk (pH2.3, heat treatment of enzyme: no, reaction time 3 h): not detected
Decomposition efficiency of daidzin family in soymilk (pH2.3, heat treatment of enzyme: no, reaction time 6 h): not detected
Decomposition efficiency of daidzin family in soymilk (pH2.3, heat treatment of enzyme: yes, reaction time 6 h): 38.8%
Decomposition efficiency of daidzin family in defatted soybean (pH2.6, heat treatment of enzyme: no, reaction time 0 h): 45.8%
Decomposition efficiency of daidzin family in defatted soybean (pH2.6, heat treatment of enzyme: no, reaction time 1 h): 37.5%
Decomposition efficiency of daidzin family in defatted soybean (pH2.6, heat treatment of enzyme: no, reaction time 3 h): 17.3%
Decomposition efficiency of daidzin family in defatted soybean (pH2.6, heat treatment of enzyme: no, reaction time 6 h): 16.9%
Decomposition efficiency of daidzin family in defatted soybean (pH2.6, heat treatment of enzyme: yes, reaction time 6 h): 48.0%
Decomposition efficiency of daidzin family in concentrated soybean protein (pH2.7, heat treatment of enzyme: no, reaction time 0 h): 52.5%
Decomposition efficiency of daidzin family in concentrated soybean protein (pH2.7, heat treatment of enzyme: no, reaction time 1 h): 12.9%
Decomposition efficiency of daidzin family in concentrated soybean protein (pH2.7, heat treatment of enzyme: no, reaction time 3 h): 12.5%
Decomposition efficiency of daidzin family in concentrated soybean protein (pH2.7, heat treatment of enzyme: no, reaction time 6 h): 9.3%
Decomposition efficiency of daidzin family in concentrated soybean protein (pH2.7, heat treatment of enzyme: yes, reaction time 6 h): 53.0%
Decomposition efficiency of daidzin family in roasted soy flour (pH3, heat treatment of enzyme no, reaction time 0 h): 49.1
Decomposition efficiency of daidzin family in roasted soy flour (pH3, heat treatment of enzyme no, reaction time 1 h): not detected
Decomposition efficiency of daidzin family in roasted soy flour (pH3, heat treatment of enzyme no, reaction time 3 h): not detected
Decomposition efficiency of daidzin family in roasted soy flour (pH3, heat treatment of enzyme no, reaction time 6 h): not detected
Decomposition efficiency of daidzin family in roasted soy flour (pH3, heat treatment of enzyme yes, reaction time 6 h): 49.0
Decomposition efficiency of daidzin family in defatted soybean (pH3.4, heat treatment of enzyme: no, reaction time 0 h): 45.8%
Decomposition efficiency of daidzin family in defatted soybean (pH3.4, heat treatment of enzyme: no, reaction time 1 h): not detected
Decomposition efficiency of daidzin family in defatted soybean (pH3.4, heat treatment of enzyme: no, reaction time 3 h): not detected
Decomposition efficiency of daidzin family in defatted soybean (pH3.4, heat treatment of enzyme: no, reaction time 6 h): not detected
Decomposition efficiency of daidzin family in defatted soybean (pH3.4, heat treatment of enzyme: yes, reaction time 6 h): 47.8%
Decomposition efficiency of daidzin family in soymilk (pH3.5, heat treatment of enzyme: no, reaction time 0 h): 34.4%
Decomposition efficiency of daidzin family in soymilk (pH3.5, heat treatment of enzyme: no, reaction time 1 h): not detected
Decomposition efficiency of daidzin family in soymilk (pH3.5, heat treatment of enzyme: no, reaction time 3 h): not detected
Decomposition efficiency of daidzin family in soymilk (pH3.5, heat treatment of enzyme: no, reaction time 6 h): not detected
Decomposition efficiency of daidzin family in soymilk (pH3.5, heat treatment of enzyme: yes, reaction time 6 h): 40.4%
Decomposition efficiency of daidzin family in concentrated soybean protein (pH3.7, heat treatment of enzyme: no, reaction time 0 h): 52.5%
Decomposition efficiency of daidzin family in concentrated soybean protein (pH3.7, heat treatment of enzyme: no, reaction time 1 h): not detected
Decomposition efficiency of daidzin family in concentrated soybean protein (pH3.7, heat treatment of enzyme: no, reaction time 3 h): not detected
Decomposition efficiency of daidzin family in concentrated soybean protein (pH3.7, heat treatment of enzyme: no, reaction time 6 h): not detected
Decomposition efficiency of daidzin family in concentrated soybean protein (pH3.7, heat treatment of enzyme: yes, reaction time 6 h): 52.5%
Decomposition efficiency of daidzin family in roasted soy flour (pH4, heat treatment of enzyme no, reaction time 0 h): 48.7
Decomposition efficiency of daidzin family in roasted soy flour (pH4, heat treatment of enzyme no, reaction time 1 h): not detected
Decomposition efficiency of daidzin family in roasted soy flour (pH4, heat treatment of enzyme no, reaction time 3 h): not detected
Decomposition efficiency of daidzin family in roasted soy flour (pH4, heat treatment of enzyme no, reaction time 6 h): not detected
Decomposition efficiency of daidzin family in roasted soy flour (pH4, heat treatment of enzyme yes, reaction time 6 h): 48.6
Decomposition efficiency of daidzin family in defatted soybean [1]: 43.5%
Decomposition efficiency of daidzin family in soymilk [1]: 34.9%
Decomposition efficiency of daidzin family in defatted soybean [2]: not detected
Decomposition efficiency of daidzin family in soymilk [2]: not detected
Decomposition efficiency of daidzin family in defatted soybean [3]: not detected
Decomposition efficiency of daidzin family in soymilk [3]: not detected
Decomposition efficiency of daidzin family in defatted soybean [4]: not detected
Decomposition efficiency of daidzin family in soymilk [4]: not detected
Decomposition efficiency of daidzin family in defatted soybean [5]: 37.1%
Decomposition efficiency of daidzin family in soymilk [5]: 41.2%
Decomposition efficiency of daidzin family in roasted soy flour (pH5, heat treatment of enzyme no, reaction time 0 h): 48.7
Decomposition efficiency of daidzin family in roasted soy flour (pH5, heat treatment of enzyme no, reaction time 1 h): not detected
Decomposition efficiency of daidzin family in roasted soy flour (pH5, heat treatment of enzyme no, reaction time 3 h): not detected
Decomposition efficiency of daidzin family in roasted soy flour (pH5, heat treatment of enzyme no, reaction time 6 h): not detected
Decomposition efficiency of daidzin family in roasted soy flour (pH5, heat treatment of enzyme yes, reaction time 6 h): 50.6
Decomposition efficiency of daidzin family in concentrated soybean protein (pH5.1, heat treatment of enzyme: no, reaction time 0 h): 52.5%
Decomposition efficiency of daidzin family in concentrated soybean protein (pH5.1, heat treatment of enzyme: no, reaction time 1 h): not detected
Decomposition efficiency of daidzin family in concentrated soybean protein (pH5.1, heat treatment of enzyme: no, reaction time 3 h): not detected
Decomposition efficiency of daidzin family in concentrated soybean protein (pH5.1, heat treatment of enzyme: no, reaction time 6 h): not detected
Decomposition efficiency of daidzin family in concentrated soybean protein (pH5.1, heat treatment of enzyme: yes, reaction time 6 h): 53.4%
Decomposition efficiency of daidzin family in defatted soybean (pH5.4, heat treatment of enzyme: no, reaction time 0 h): 43.5%
Decomposition efficiency of daidzin family in defatted soybean (pH5.4, heat treatment of enzyme: no, reaction time 1 h): not detected
Decomposition efficiency of daidzin family in defatted soybean (pH5.4, heat treatment of enzyme: no, reaction time 3 h): not detected
Decomposition efficiency of daidzin family in defatted soybean (pH5.4, heat treatment of enzyme: no, reaction time 6 h): not detected
Decomposition efficiency of daidzin family in defatted soybean (pH5.4, heat treatment of enzyme: yes, reaction time 6 h): not detected
Decomposition efficiency of daidzin family in soymilk (pH6.2, heat treatment of enzyme: no, reaction time 0 h): 34.9%
Decomposition efficiency of daidzin family in soymilk (pH6.2, heat treatment of enzyme: no, reaction time 1 h): not detected
Decomposition efficiency of daidzin family in soymilk (pH6.2, heat treatment of enzyme: no, reaction time 3 h): not detected
Decomposition efficiency of daidzin family in soymilk (pH6.2, heat treatment of enzyme: no, reaction time 6 h): not detected
Decomposition efficiency of daidzin family in soymilk (pH6.2, heat treatment of enzyme: yes, reaction time 6 h): 40.6%
Decomposition efficiency of daidzin family in roasted soy flour (pH6.5, heat treatment of enzyme no, reaction time 0 h): 48.4
Decomposition efficiency of daidzin family in roasted soy flour (pH6.5, heat treatment of enzyme no, reaction time 1 h): not detected
Decomposition efficiency of daidzin family in roasted soy flour (pH6.5, heat treatment of enzyme no, reaction time 3 h): not detected
Decomposition efficiency of daidzin family in roasted soy flour (pH6.5, heat treatment of enzyme no, reaction time 6 h): not detected
Decomposition efficiency of daidzin family in roasted soy flour (pH6.5, heat treatment of enzyme yes, reaction time 6 h): 51.9
Decomposition efficiency of daidzin family in concentrated soybean protein [6]: 52.1%
Decomposition efficiency of daidzin family in defatted soybean [6]: 43.6%
Decomposition efficiency of daidzin family in concentrated soybean protein [7]: 5.0%
Decomposition efficiency of daidzin family in defatted soybean [7]: not detected
Decomposition efficiency of daidzin family in concentrated soybean protein [8]: not detected
Decomposition efficiency of daidzin family in defatted soybean [8]: not detected
Decomposition efficiency of daidzin family in concentrated soybean protein [9]: not detected
Decomposition efficiency of daidzin family in defatted soybean [9]: not detected
Decomposition efficiency of daidzin family in concentrated soybean protein [10]: 55.1%
Decomposition efficiency of daidzin family in defatted soybean [10]: 9.3%
Decomposition efficiency of daidzin family in soymilk (pH7.2, heat treatment of enzyme: no, reaction time 0 h): 34.9%
Decomposition efficiency of daidzin family in soymilk (pH7.2, heat treatment of enzyme: no, reaction time 1 h): not detected
Decomposition efficiency of daidzin family in soymilk (pH7.2, heat treatment of enzyme: no, reaction time 3 h): not detected
Decomposition efficiency of daidzin family in soymilk (pH7.2, heat treatment of enzyme: no, reaction time 6 h): not detected
Decomposition efficiency of daidzin family in soymilk (pH7.2, heat treatment of enzyme: yes, reaction time 6 h): 41.5%
Decomposition efficiency of daidzin family in defatted soybean (pH7.8, heat treatment of enzyme: no, reaction time 0 h): 44.7%
Decomposition efficiency of daidzin family in defatted soybean (pH7.8, heat treatment of enzyme: no, reaction time 1 h): 13.3%
Decomposition efficiency of daidzin family in defatted soybean (pH7.8, heat treatment of enzyme: no, reaction time 3 h): 10.1%
Decomposition efficiency of daidzin family in defatted soybean (pH7.8, heat treatment of enzyme: no, reaction time 6 h): 9.4%
Decomposition efficiency of daidzin family in defatted soybean (pH7.8, heat treatment of enzyme: yes, reaction time 6 h): 41.6%
Decomposition efficiency of daidzin family in roasted soy flour (pH8.5, heat treatment of enzyme no, reaction time 0 h): 54.1
Decomposition efficiency of daidzin family in roasted soy flour (pH8.5, heat treatment of enzyme no, reaction time 1 h): 20.4
Decomposition efficiency of daidzin family in roasted soy flour (pH8.5, heat treatment of enzyme no, reaction time 3 h): 13.3
Decomposition efficiency of daidzin family in roasted soy flour (pH8.5, heat treatment of enzyme no, reaction time 6 h): 10.2
Decomposition efficiency of daidzin family in roasted soy flour (pH8.5, heat treatment of enzyme yes, reaction time 6 h): 58.8
Decomposition efficiency of daidzin family in concentrated soybean protein (pH8.6, heat treatment of enzyme: no, reaction time 0 h): 56.1%
Decomposition efficiency of daidzin family in concentrated soybean protein (pH8.6, heat treatment of enzyme: no, reaction time 1 h): 50.8%
Decomposition efficiency of daidzin family in concentrated soybean protein (pH8.6, heat treatment of enzyme: no, reaction time 3 h): 45.0%
Decomposition efficiency of daidzin family in concentrated soybean protein (pH8.6, heat treatment of enzyme: no, reaction time 6 h): 34.5%
Decomposition efficiency of daidzin family in concentrated soybean protein (pH8.6, heat treatment of enzyme: yes, reaction time 6 h): 59.1%
Decomposition efficiency of daidzin family in soymilk (pH11.6, heat treatment of enzyme: no, reaction time 0 h): 38.8%
Decomposition efficiency of daidzin family in soymilk (pH11.6, heat treatment of enzyme: no, reaction time 1 h): not detected
Decomposition efficiency of daidzin family in soymilk (pH11.6, heat treatment of enzyme: no, reaction time 3 h): not detected
Decomposition efficiency of daidzin family in soymilk (pH11.6, heat treatment of enzyme: no, reaction time 6 h): not detected
Decomposition efficiency of daidzin family in soymilk (pH11.6, heat treatment of enzyme: yes, reaction time 6 h): 44.6%
